Assay results as given in ChEMBL document CHEMBL1201862, “PubChem BioAssay data set” (2004).
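Exposure lasted 48 hours, with cells grown in 96-well plates and compounds tested at five concentrations. The concentration for 50% growth inhibition is given as GI50.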 The source made the active and inactive calls. Cut-off read from the data, not from the text of the source: active = GI50 up to about 1.1 µM and inactive = higher.

Legend:
Assay in all cases: inhibition of tumour cell growth, NCI panel, 48 h
[1] = tested on: 786-0
[2] = tested on: A549
[3] = tested on: ACHN
[4] = tested on: CCRF-CEM
[5] = tested on: COLO 205
[6] = tested on: DLD-1
[7] = tested on: DMS-114
[8] = tested on: DMS-273
[9] = tested on: EKVX
[10] = tested on: HCT-116
[11] = tested on: HCT-15
[12] = tested on: HL-60
[13] = tested on: HOP-18
[14] = tested on: HOP-62
[15] = tested on: HT-29
[16] = tested on: IGROV-1
[17] = tested on: K562
[18] = tested on: KM-20L2
[19] = tested on: KM12
[20] = tested on: LOX IMVI
[21] = tested on: M14
[22] = tested on: M19-MEL
[23] = tested on: MOLT-4
[24] = tested on: Malme-3M
[25] = tested on: NCI-H226
[26] = tested on: NCI-H23
[27] = tested on: NCI-H460
[28] = tested on: NCI-H522
[29] = tested on: OVCAR-3
[30] = tested on: OVCAR-8
[31] = tested on: RPMI-8226
[32] = tested on: RXF 393
[33] = tested on: SF-295
[34] = tested on: SF-539
[35] = tested on: SK-MEL-28
[36] = tested on: SK-MEL-5
[37] = tested on: SK-OV-3
[38] = tested on: SN12C
[39] = tested on: SNB-19
[40] = tested on: SNB-75
[41] = tested on: SW-620
[42] = tested on: TK-10
[43] = tested on: U-251
[44] = tested on: UACC-257
[45] = tested on: UACC-62
[46] = tested on: UO-31
[47] = tested on: CAKI-1
[48] = tested on: HCC 2998
[49] = tested on: HOP-92
[50] = tested on: LXFL 529
[51] = tested on: OVCAR-4
[52] = tested on: OVCAR-5
[53] = tested on: SF-268
[54] = tested on: SK-MEL-2
[55] = tested on: SNB-78
[56] = tested on: SR

In the case of `C[N+](C)(C)CC1CCCCC1=O` (stereo unspecified), the GI50 [1] is reported as > 100 µM (inactive), the GI50 [2] is reported as > 100 µM (inactive) and the GI50 [3] is reported as 16.4 µM (inactive). For the same molecule, the GI50 [4] was 4.56 µM (inactive), the GI50 [5] was 22.6 µM (inactive) and the GI50 [6] was 19.8 µM (inactive). For the same molecule, the GI50 [7] was 36.9 µM (inactive), the GI50 [8] was 71.3 µM (inactive) and the GI50 [9] was 19.9 µM (inactive). The GI50 [10] was 17.7 µM (inactive), the GI50 [11] was 14.1 µM and the GI50 [12] was 13.9 µM (inactive). The GI50 [13] was 16.3 µM (inactive), the GI50 [14] was > 100 µM (inactive) and the GI50 [15] was 19.6 µM (inactive). For the same molecule, the GI50 [16] was > 100 µM (inactive), the GI50 [17] was 8.63 µM (inactive) and the GI50 [18] was 2 µM (inactive). The GI50 [19] was 58.2 µM (inactive), the GI50 [20] was 14 µM (inactive) and the GI50 [21] was 16.6 µM (inactive). The GI50 [22] was 18.5 µM (inactive), the GI50 [23] was 12.4 µM (inactive) and the GI50 [24] was 19.6 µM (inactive). The GI50 [25] was > 100 µM (inactive), the GI50 [26] was 22.5 µM (inactive) and the GI50 [27] was 55.3 µM (inactive). The GI50 [28] was 19.1 µM (inactive), the GI50 [29] was 19.1 µM (inactive) and the GI50 [30] was 19.2 µM (inactive). The GI50 [31] was 9.06 µM (inactive), the GI50 [32] was 18.4 µM (inactive) and the GI50 [33] was > 100 µM (inactive). For the same molecule, the GI50 [34] was > 100 µM (inactive), the GI50 [35] was 17.3 µM (inactive) and the GI50 [36] was 25.2 µM (inactive). The GI50 [37] was > 100 µM (inactive), the GI50 [38] was > 100 µM (inactive) and the GI50 [39] was > 100 µM (inactive). The GI50 [40] was 20.5 µM (inactive), the GI50 [41] was 8.49 µM (inactive) and the GI50 [42] was 37.1 µM (inactive). For the same molecule, the GI50 [43] was > 100 µM (inactive), the GI50 [44] was 14.3 µM (inactive) and the GI50 [45] was 18.9 µM (inactive). For the same molecule, the GI50 [46] was > 100 µM (inactive).

In the case of `O/N=C(\c1ccccc1)N1CCCCC1`, the GI50 [1] is reported as > 100 µM (inactive), the GI50 [2] is reported as > 100 µM (inactive) and the GI50 [47] is reported as > 100 µM (inactive). The GI50 [5] was > 100 µM (inactive), the GI50 [6] was > 100 µM (inactive) and the GI50 [7] was > 100 µM (inactive). The GI50 [8] was > 100 µM (inactive), the GI50 [48] was > 100 µM (inactive) and the GI50 [10] was > 100 µM (inactive). For the same molecule, the GI50 [12] was > 100 µM (inactive), the GI50 [13] was < 0.01 µM (active) and the GI50 [14] was 92.3 µM (inactive). The GI50 [49] was > 100 µM (inactive), the GI50 [15] was > 100 µM (inactive) and the GI50 [18] was > 100 µM (inactive). The GI50 [19] was > 100 µM (inactive), the GI50 [20] was > 100 µM (inactive) and the GI50 [50] was > 100 µM (inactive). The GI50 [21] was > 100 µM (inactive), the GI50 [24] was 4.19 µM (inactive) and the GI50 [26] was > 100 µM (inactive). For the same molecule, the GI50 [27] was > 100 µM (inactive), the GI50 [28] was > 100 µM (inactive) and the GI50 [29] was > 100 µM (inactive). The GI50 [51] was > 100 µM (inactive), the GI50 [52] was > 100 µM (inactive) and the GI50 [30] was > 100 µM (inactive). For the same molecule, the GI50 [53] was > 100 µM (inactive), the GI50 [33] was > 100 µM (inactive) and the GI50 [34] was > 100 µM (inactive). For the same molecule, the GI50 [54] was > 100 µM (inactive), the GI50 [38] was > 100 µM (inactive) and the GI50 [39] was > 100 µM (inactive). For the same molecule, the GI50 [40] was 82.8 µM (inactive), the GI50 [55] was > 100 µM (inactive) and the GI50 [56] was > 100 µM (inactive). The GI50 [41] was > 100 µM (inactive), the GI50 [43] was > 100 µM (inactive) and the GI50 [44] was > 100 µM (inactive). For the same molecule, the GI50 [46] was 66.5 µM (inactive).
